“Also recorded” adds a separate entry of the source.
How the values were obtained:
[1] = target: T1, JAK2 (Homo sapiens, UniProt O60674); assay: Western blot of phospho-JAK2 in breast cancer cells and patient-derived tumourspheres; type: cell-based; settings: 6 hr pacritinib treatment, western blot
T1 construct: endogenous in cells; host or cells: MB468 and MB231 cells; PDX-derived tumourspheres
Description: All immunoblots shown in this specification represent at least two independent experiments. In brief, cells were washed with PBS and lysed in RIPA buffer supplemented with protease and phosphatase inhibitors and further sonicated using an XL2000 Microson Ultrasonice Processor (Misonix). Equal amounts of protein extract were separated on SDS-polyacrylamided gels and transferred to PVDF membranes. Membranes were further blocked with 5% milk or BSA, and then probed with the following antibodies: anti-IRAK1 was purchased from Santa Cruz Biotechnology (Santa Cruz, Calif.; sc-7883), anti-phospho-IRAK1 (T209) was purchased from Assay Biotech (Sunnyvale, Calif.; A1074), anti-JAK2 (Danvers, Mass.; #3230) and anti-phospho-JAK2 ([…]) (Danvers, Mass.: #3774) were purchased from Cell Signaling Technology, anti-actin was purchased from Sigma Aldrich CA; A5441). For protein extraction of xenograft tumours, snap frozen samples were resuspended in RIPA buffer supplemented with protease and phosphatase inhibitors and homogenized with QIAGEN TissueLyzer II as described by the manufacturer, followed by immunoblotting as described above.

[2] = test system: PDX-derived tumourspheres; assay: Mammosphere (tumoursphere) formation assay, PDX-derived tumourspheres; type: cell-based, human; settings: four different PDX-derived tumourspheres
Experimental: Mammosphere Formation Assay PDX-derived tumoursphere cells were trypsinized and passed through 40 μm cell strainer to achieve single cell suspensions. 3×10^4 cells were seeded in 6-well ultra-low attachment plates (Corning, N.Y.; CLS3471) in serum-free DMEM/F12 supplemented with N2 and B27 (Gibco, Grand Island, N.Y.), 20 ng/ml epidermal growth factor (MACS, Auburn, Calif.), 20 ng/ml basic fibroblast growth factor (MACS, Auburn, Calif.), 0.2 μM Thiazovivin ([…] Technologies, Vancouver, BC) and penicillin/streptomycin (Gibco, Carlsbad, Calif.). For breast cancer cell lines and MCF10A cell line, 3×10^4 cells were seeded in 6-well ultra-low attachment plates in Mammocult medium (Stem Cell Technologies, Vancouver, BC, Canada), supplemented with fresh hydrocortisone (0.5 μg/ml) and heparin (1:500). Mammospheres were maintained at 37° C. with 5% CO2 and topped up with medium every 3 days. After 7-9 days, mammospheres were stained with INT (2-(4-iodophenyl)-3-(4-nitrophenyl)-5-phenyl-2H-tetrazolium chloride, Sigma-Aldrich) and quantified. Imaging and quantification were done using GelCount apparatus and associated software (Oxford Optronix, Abingdon, UK). […] Cell Proliferation Assay

[3] = test system: S100A7/8/9; assay: Real-time PCR analysis of S100A7/8/9 gene expression in cells; type: cell-based, human
Experimental: Total RNA was isolated using TRIzol® reagent (Life Technologies, Carlsbad, Calif.; 15596026) and purified with Direct-zolTM RNA MiniPrep (Zymo Research, Irvine, Calif.; […]). Reverse transcription and quantitative PCR assays were performed using High-Capacity cDNA Reverse Transcription Kit (Applied Biosystems, Carlsbad, Calif.; 4368813) and KAPA SyBr Fast qPCR kit (KAPA Biosystems, Wilmington, Mass.; KK4601). For quantification of mRNA levels, GAPDH level was used as an internal control. All reactions were analysed in an Applied Biosystems PRISM 7500 Fast Real-Time PCR system in 96-well plate format. For RNA extraction of xenograft tumours, snap frozen samples were resuspended in TRIzol® reagent and homogenized with QIAGEN TissueLyzer II as described by the manufacturer, followed by purification with Direct-zolITM RNA MiniPrep.

[4] = test system: S100A7/8/9; assay: Real time RT-PCR of S100A7/8/9 expression in HCC70 xenograft; type: in vivo, NOD-SCID mice; settings: HCC70 xenograft (n=4) treated with pacritinib
Experimental: Mice were then dosed daily by oral gavage for 21 days. Tumour growth was monitored for 1 month.
Total RNA was isolated using TRIzol® reagent (Life Technologies, Carlsbad, Calif.; 15596026) and purified with Direct-zol™ RNA MiniPrep (Zymo Research, Irvine, Calif.; R2050). Reverse transcription and quantitative PCR assays were performed using High-Capacity cDNA Reverse Transcription Kit (Applied Biosystems, Carlsbad, Calif.; 4368813) and KAPA SyBr Fast qPCR kit (KAPA Biosystems, Wilmington, Mass.; KK4601). For quantification of mRNA levels, GAPDH level was used as an internal control. All reactions were analysed in an Applied Biosystems PRISM 7500 Fast Real-Time PCR system in 96-well plate format. For RNA extraction of xenograft tumours, snap frozen samples were resuspended in TRIzol® reagent and homogenized with QIAGEN TissueLyzer II as described by the manufacturer, followed by purification with Direct-zolI™ RNA MiniPrep.

[5] = test system: EL12-58 PDX tumours; assay: Neoadjuvant breast cancer PDX model of tumour recurrence; type: in vivo, NOD-SCID mice; settings: after paclitaxel-induced regression and surgery; 20 mg/kg paclitaxel, 150 mg/kg pacritinib or both

T1 sequence (O60674 whole entry): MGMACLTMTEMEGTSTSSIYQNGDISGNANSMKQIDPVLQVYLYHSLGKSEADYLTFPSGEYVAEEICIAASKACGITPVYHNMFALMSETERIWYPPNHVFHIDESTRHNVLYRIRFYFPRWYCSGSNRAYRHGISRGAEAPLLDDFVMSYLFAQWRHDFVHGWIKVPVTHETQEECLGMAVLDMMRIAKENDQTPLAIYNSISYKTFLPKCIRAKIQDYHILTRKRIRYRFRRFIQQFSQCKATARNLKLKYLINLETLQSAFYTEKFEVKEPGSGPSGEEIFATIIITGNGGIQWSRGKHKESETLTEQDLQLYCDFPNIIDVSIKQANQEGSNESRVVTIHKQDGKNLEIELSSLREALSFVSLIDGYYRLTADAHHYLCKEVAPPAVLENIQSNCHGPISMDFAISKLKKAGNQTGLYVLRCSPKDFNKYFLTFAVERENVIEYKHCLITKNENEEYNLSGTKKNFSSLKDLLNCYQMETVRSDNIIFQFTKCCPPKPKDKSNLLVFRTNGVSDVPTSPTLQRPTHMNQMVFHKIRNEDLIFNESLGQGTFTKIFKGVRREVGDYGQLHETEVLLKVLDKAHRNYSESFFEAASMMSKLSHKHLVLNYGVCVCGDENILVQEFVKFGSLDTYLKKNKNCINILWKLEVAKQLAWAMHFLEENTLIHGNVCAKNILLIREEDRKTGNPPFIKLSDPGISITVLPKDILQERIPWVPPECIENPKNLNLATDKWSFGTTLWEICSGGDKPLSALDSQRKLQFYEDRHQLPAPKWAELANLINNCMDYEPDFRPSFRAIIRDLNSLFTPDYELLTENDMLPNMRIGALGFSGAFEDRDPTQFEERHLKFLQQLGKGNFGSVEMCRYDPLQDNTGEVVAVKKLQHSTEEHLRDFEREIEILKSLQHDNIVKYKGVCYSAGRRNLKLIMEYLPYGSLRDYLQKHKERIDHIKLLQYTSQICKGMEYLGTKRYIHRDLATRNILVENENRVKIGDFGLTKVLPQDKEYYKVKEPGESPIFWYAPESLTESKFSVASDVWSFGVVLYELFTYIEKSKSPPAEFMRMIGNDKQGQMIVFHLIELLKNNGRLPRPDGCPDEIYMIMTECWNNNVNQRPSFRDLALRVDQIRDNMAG

`C1=C/COCc2cc(ccc2OCCN2CCCC2)Nc2nccc(n2)-c2cccc(c2)COC/1` [pacritinib] was tested, and the “phosphorylation of JAK2” value ([1]; MB231 cells) was “inhibition of phospho-IRAK1 and phospho-JAK2 within 6 hr; also recorded: inhibited phosphorylation of JAK2”, the “phosphorylation of JAK2” value ([1]; MB468 cells) was “inhibition of phospho-IRAK1 and phospho-JAK2 within 6 hr; also recorded: effectively block the phosphorylation of both IRAK1 and JAK2 as early as 6 hours in a dose-dependent manner” and the tumoursphere growth [2] was “strong tumoursphere growth inhibition”. The “expression of S100A7/8/9” value ([3]; MB468 cells, 24 hr pacritinib treatment) was “reduced the expression of S100A7/8/9 in MB468 cells in a dose-dependent manner”, the S100A7 expression ([3]; across the cell models tested) was “seemed to be cell specific” and the “expressions of S100A8 and S100A9” value ([3]; across the cell models tested) was “consistently reduced”. For the same compound, the “expression of S100A7/8/9” value ([3]; patient-derived tumoursphere cells, 24 hr, pacritinib 2.5 μM) was “reduced expression of S100A7/8/9”, the “S100A7/8/9 expression in xenograft” value [4] was “downregulation” and the “tumour regrowth after surgical removal of residual tumour” value [5] was “slowed down”.

— patent US11680298B2, “Method of identifying risk of cancer and therapeutic options” (Agency for Science, Technology and Research, priority 2016, dated 2023)
